Reference: patent publication US20180318275A1, “COMBINATION THERAPY USING PI3K INHIBITOR AND MDM2 INHIBITOR” (Novartis AG, priority 2015, published 2018)

Legend:
Type in all cases: cell-based
HCT-116 = assay: Cell proliferation (cell count by microscopy), Example 3; settings: Homo sapiens; HCT-116, single agent, 72 h, cell count relative to DMSO
Experimental: (§1) COMPOUNDS A, B and C were dissolved in 100% DMSO (Sigma, Catalog number D2650) at concentrations of 20 mM and stored at −20° C. until use. Compounds were arrayed in drug master plates (Greiner, Catalog number 788876) and serially diluted 3-fold (7 steps) at 2000× concentration.
(§2) To test the effect of the combination of COMPOUND A, COMPOUND B, and COMPOUND C on cell proliferation cells were plated in black 384-well microplates with clear bottom (Matrix/Thermo Scientific, Catalog number 4332) in 50 μL media per well at cell densities between 500 and 1250 cells/well (Table 1 above) and allowed to incubate at 37 degrees, 5% CO2 for 24 h. After 24 h one 384-well plate per cell line was prepared for cell counting by microscopy (see below) without receiving treatment (=‘baseline’). The other cell plates were treated by transferring 25 nL of the 2000× compound from drug master plates using an ATS acoustic liquid dispenser (ECD Biosystems) and resulting in a final 1× concentration. COMPOUND A was used over a final concentration range of 13 nM-10 μM, COMPOUND B was used over a final concentration range of 13 nM-10 μM, and COMPOUND C was used over a final concentration range of 13 nM-10 μM (7 1:3 dilution steps). In order to assess the effect of the triple combination all individual COMPOUNDS (A, B, C), all three pair wise combinations (A+B, A+C, B+C), and the triple combination (A+B+C) were tested in the same experiment. Pair wise combinations and the triple combination were tested at a fixed ratio of 1:1 (for drug pairs) and 1:1:1 (for the drug triple) at each dilution resulting in 7 combination conditions per treatment. […] After compound addition 50 nL of 2 mM CellEvent Caspase-3/7 Green Detection Reagent (ThermoFisher, Catalog number C10423) were added to one of the three replicates using the HP D300 Digital Dispenser (Tecan). Caspase 3/7 induction was measured as a proxy for apoptosis induced by the treatments. Cells were treated for 72 h to 96 h depending on their doubling time (Table 1), and Caspase 3/7 activation was measured every 24 h by microscopy using an InCell Analyzer 2000 (GE Healthcare) equipped with a 4× objective and FITC excitation/emission filters. At the end of the treatment cells were prepared for cell counting by microscopy. Cells were fixed and permeabilised for 45 minutes in 4% PFA (Electron Microscopy Sciences, Catalog number 15714), 0.12% TX-100 (Electron Microscopy Sciences, Catalog number 22140) in PBS (Boston Bioproducts, Catalog number BM-220). After washing cells three times with PBS their DNA was stained for 30 minutes with Hoechst 33342 (ThermoFisher, Catalog number H3570) at a final concentration of 4 μg/mL. Cells were washed three times with PBS and then plates were heat-sealed using a PlateLoc (Agilent Technologies) with aluminum seals (Agilent Technologies, Catalog number 06644-001) and stored at 4° C. until imaging. All cells per well/treatment were captured in a single image by fluorescence microscopy using an InCell Analyzer 2000 (GE Healthcare) equipped with a 4× objective and DAPI excitation/emission filters.
(§3) Images were analyzed after adapting previously described methods (Horn, Sandmann et al. 2011, Nat. Methods 8(4): 341-346) and using the Bioconductor package EBImage in R (Pau, Fuchs et al. 2010, Bioinformatics 26(7):979-981). Objects in both channels, DAPI (for Hoechst/DNA) and FITC (for Caspase 3/7), were segmented separately by adaptive thresholding and counted. A threshold for Caspase 3/7 positive objects was defined manually per cell line after comparing negative controls (DMSO) and positive controls (Staurosporine). By analyzing 17 additional object/nuclei features in the DNA channel (shape and intensity features) debris/fragmented nuclei were identified. To this end per cell line the distributions of the additional features between positive controls (Staurosporine) and negative controls (DMSO) were compared manually. […]

LS-180 = assay: as above; settings: Homo sapiens, LS180; LS-160 (so in the source), single agent, 72 h, cell count relative to DMSO
Experimental: as §1, §2, §3

GP2d = assay: as above; settings: single agent, 72 h, cell count relative to DMSO, unit (micromolar, top dose 10 μM)
Experimental: as §1, §2, §3

RKO = assay: as above; settings: Homo sapiens, single agent, 72 h, cell count relative to DMSO
Experimental: as §1, §2, §3

LoVo = assay: as above; settings: Homo sapiens, single agent, 96 h, cell count relative to DMSO
Experimental: as §1, §2, §3

[1] = system: 5 TP53 wild type colorectal cancer cell lines; assay: Cell proliferation over the cell line panel, Example 3; settings: Example 3, panel of 5 lines, 13 nM-10 μM
Experimental: To test the effect of the combination of COMPOUND A, COMPOUND B, and COMPOUND C on cell proliferation cells were plated in black 384-well microplates with clear bottom (Matrix/Thermo Scientific, Catalog number 4332) in 50 μL media per well at cell densities between 500 and 1250 cells/well (Table 1 above) and allowed to incubate at 37 degrees, 5% CO2 for 24 h. After 24 h one 384-well plate per cell line was prepared for cell counting by microscopy (see below) without receiving treatment (=‘baseline’). The other cell plates were treated by transferring 25 nL of the 2000× compound from drug master plates using an ATS acoustic liquid dispenser (ECD Biosystems) and resulting in a final 1× concentration. COMPOUND A was used over a final concentration range of 13 nM-10 μM, COMPOUND B was used over a final concentration range of 13 nM-10 μM, and COMPOUND C was used over a final concentration range of 13 nM-10 μM (7 1:3 dilution steps). In order to assess the effect of the triple combination all individual COMPOUNDS (A, B, C), all three pair wise combinations (A+B, A+C, B+C), and the triple combination (A+B+C) were tested in the same experiment. […] Caspase 3/7 induction was measured as a proxy for apoptosis induced by the treatments. Cells were treated for 72 h to 96 h depending on their doubling time (Table 1), and Caspase 3/7 activation was measured every 24 h by microscopy using an InCell Analyzer 2000 (GE Healthcare) equipped with a 4× objective and FITC excitation/emission filters. […] All cells per well/treatment were captured in a single image by fluorescence microscopy using an InCell Analyzer 2000 (GE Healthcare) equipped with a 4× objective and DAPI excitation/emission filters.
Images were analyzed after adapting previously described methods (Horn, Sandmann et al. 2011, Nat. Methods 8(4): 341-346) and using the Bioconductor package EBImage in R (Pau, Fuchs et al. 2010, Bioinformatics 26(7):979-981). Objects in both channels, DAPI (for Hoechst/DNA) and FITC (for Caspase 3/7), were segmented separately by adaptive thresholding and counted. […]

## CC1(C)CCC(c2ccc(Cl)cc2)=C(CN2CCN(c3ccc(C(=O)NS(=O)(=O)c4ccc(N[C@H](CCN5CCOCC5)CSc5ccccc5)c(S(=O)(=O)C(F)(F)F)c4)cc3)CC2)C1 [COMPOUND C, 4-[4-[[2-(4-Chlorophenyl)-5,5-dimethyl-1-cyclohexen-1-yl]methyl]-1-piperazinyl]-N-[[4-[[(1R)-3-(4-morpholinyl)-1-[(phenylthio)methyl]propyl]amino]-3-[(trifluoromethyl)sulfonyl]phenyl]sulfonyl]benzamide, reference compound]
HCT-116
  IC50: > 10 µM
LS-180
  IC50: > 10 µM
GP2d
  IC50: > 10 µM
RKO
  IC50: > 10 µM
LoVo
  IC50: > 10 µM
[1]
  Single agent growth inhibition, in words: no single agent efficacy
